Experimental data as given in PMC10584170, “Machine learning-based phenotypic imaging to characterise the targetable biology of Plasmodium falciparum male gametocytes for the development of transmission-blocking antimalarials” (PLOS Pathogens, 2023).
Like-named read-outs stand apart in the source and are kept apart here.

Columns and labels:
[1] = test system: P. falciparum female gametocytes; experiment: P. falciparum Dual Gamete Formation Assay (PfDGFA), female readout (Pfs25-positive female gametes); assay type: cell-based, Plasmodium falciparum NF54; conditions: for Selectivity ratio F: HepG2 Tox50 versus female IC50; for inhibition at 2 µM / Average inhibition female (%) / % inhibition female (individual replicates) R1 / % inhibition female (individual replicates) R3 / % inhibition female (individual replicates) R4: 24h preincubation with gametocytes; for IC50: PfDGFA, 24 h incubation with gametocytes before induction, female gamete readout, read-out: Female IC50; for HitlevelF: number of replicates with >50% inhibition in the female readout
Outline: (§1)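 First, day-14 P. falciparum NF54 gametocytes receive compound for 24 h at 37°C in 1% O2/3% CO2. Next, ookinete medium with Cy3 anti-Pfs25 triggers gametogenesis at 28°C and male exflagellation is imaged. Finally, after 24 h in the dark, Cy3-labelled females are imaged.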

[2] = test system: P. falciparum male gametocytes; experiment: P. falciparum Dual Gamete Formation Assay (PfDGFA), male readout (exflagellation); assay type: cell-based, Plasmodium falciparum NF54; conditions: for Selectivity Ratio M: HepG2 Tox50 versus male IC50; for inhibition at 2 µM / Average inhibition male (%) / % inhibition male (individual replicates) R1 / % inhibition male (individual replicates) R4 / % inhibition male (individual replicates) R3: 24h preincubation with gametocytes; for IC50: PfDGFA, 24 h incubation with gametocytes before induction, exflagellation readout, read-out: Male IC50; for HitlevelM: number of replicates with >50% inhibition in the male readout
Outline: as §1

HepG2 cells = experiment: HepG2 cytotoxicity counter-screen; conditions: cytotoxic activity against HepG2 cells
[3] = Plasmodium falciparum, 2µM, average of replicates, read-out: Average inhibition female (%)
[4] = Plasmodium falciparum, 2µM, replicate R1, read-out: % inhibition female (individual replicates) R1
[5] = Plasmodium falciparum, 2µM, replicate R2, read-out: % inhibition female (individual replicates) R2
[6] = Plasmodium falciparum, 2µM, replicate R3, read-out: % inhibition female (individual replicates) R3
[7] = Plasmodium falciparum, 2µM, replicate R4, read-out: % inhibition female (individual replicates) R4
[8] = Plasmodium falciparum, 2µM, average of replicates, read-out: Average inhibition male (%)
[9] = Plasmodium falciparum, 2µM, replicate R1, read-out: % inhibition male (individual replicates) R1
[10] = Plasmodium falciparum, 2µM, replicate R2, read-out: % inhibition male (individual replicates) R2
[11] = Plasmodium falciparum, 2µM, replicate R3, read-out: % inhibition male (individual replicates) R3
[12] = Plasmodium falciparum, 2µM, replicate R4, read-out: % inhibition male (individual replicates) R4
[13] = PfDGFA at 2µM, average of replicates

| IC50 ([1]; Plasmodium falciparum) | IC50 ([2]; Plasmodium falciparum) | IC50 [1] | Structure (SMILES) | Selectivity ratio F [1] | inhibition at 2 µM [1, 3] | inhibition at 2 µM [1, 4] | inhibition at 2 µM [1, 5] | inhibition at 2 µM [1, 6] | inhibition at 2 µM [1, 7] | Selectivity Ratio M [2] | inhibition at 2 µM [2, 8] | inhibition at 2 µM [2, 9] | inhibition at 2 µM [2, 10] | inhibition at 2 µM [2, 11] | inhibition at 2 µM [2, 12] | Tox50 (HepG2 cells) | IC50 [2] | Average inhibition female (%) ([1]; 2µM, average of replicates) | % inhibition female (individual replicates) R1 ([1]; 2µM, replicate R1) | % inhibition female (individual replicates) R3 ([1]; 2µM, replicate R3) | further results |
| --- | --- | --- | --- | --- | --- | --- | --- | --- | --- | --- | --- | --- | --- | --- | --- | --- | --- | --- | --- | --- | --- |
| 430 nM | 850 nM | – | Cl.NCC1(c2nc(-c3ccc(Cl)c(O)c3)c(-c3ccncc3)[nH]2)CCCCC1 [TCMDC-141154] | 23.04 | 94.3% | 92.5% | 91.3% | 101% | 92.3% | 11.58 | 99.7% | 95.4% | 103% | 95.7% | 105% | 9.89 µM | – | – | – | – | – |
| – | – | – | CN(C)CC(O)COc1ccc(Nc2ncc([N+](=O)[O-])c(Nc3ccccc3O)n2)cc1.O=C(O)C(F)(F)F (stereo not drawn) [TCMDC-141399] | 0.27 | – | – | – | – | – | 1.47 | – | – | – | – | – | 2.69 µM | 1830 nM | – | – | – | Average inhibition female (%) [1, 13]: 9.6%; % inhibition female (individual replicates) R1 ([1]; PfDGFA at 2µM, replicate R1): 0.18%; % inhibition female (individual replicates) R3 ([1]; PfDGFA at 2µM, replicate R3): 2.4%; % inhibition female (individual replicates) R4 ([1]; PfDGFA at 2µM, replicate R4): 9.1%; HitlevelF ([1]; 2µM): 0; Average inhibition male (%) [2, 13]: 87.0%; % inhibition male (individual replicates) R1 ([2]; PfDGFA at 2µM, replicate R1): 80.9%; % inhibition male (individual replicates) R4 ([2]; PfDGFA at 2µM, replicate R4): 85.8%; HitlevelM ([2]; 2µM): 3 |
| – | – | 4420 nM | Cl.O=S(=O)(Nc1cc2c(cc1OCCCN1CCCCC1)CCNCC2)c1ccc(-c2ccc(Cl)cc2)cc1 [TCMDC-141753] | 1.62 | – | – | – | – | – | 5.89 | – | – | – | – | – | 7.17 µM | 1220 nM | 56.2% | 37.1% | 44.2% | % inhibition female (individual replicates) R4 ([1]; 2µM, replicate R4): 65.5%; Average inhibition male (%) ([2]; 2µM, average of replicates): 98.2%; % inhibition male (individual replicates) R1 ([2]; 2µM, replicate R1): 97.5%; % inhibition male (individual replicates) R3 ([2]; 2µM, replicate R3): 95.7%; % inhibition male (individual replicates) R4 ([2]; 2µM, replicate R4): 101.6% |
| 260 nM | 240 nM | – | O=C(O)CCSSc1cccc[n+]1[O-] [TCMDC-141973] | 117.36 | 42.8% | 28.9% | 62.6% | 43.7% | 35.9% | 128.35 | 97.3% | 98.9% | 96.8% | 100% | 92.9% | 30.9 µM | – | – | – | – | – |
| – | – | 2250 nM | Nc1nc(N)c2cc(NC(=O)c3ccc(Cl)c(Cl)c3)ccc2n1 [TCMDC-141982] | 1.06 | – | – | – | – | – | 2.06 | – | – | – | – | – | 2.38 µM | 1150 nM | 81.8% | 88.2% | 90.4% | % inhibition female (individual replicates) R4 ([1]; 2µM, replicate R4): 80.2%; Average inhibition male (%) ([2]; 2µM, average of replicates): 98.2%; % inhibition male (individual replicates) R1 ([2]; 2µM, replicate R1): 97.3%; % inhibition male (individual replicates) R3 ([2]; 2µM, replicate R3): 98.4%; % inhibition male (individual replicates) R4 ([2]; 2µM, replicate R4): 100.2% |
| – | – | 4930 nM | Cl.OC(CNCCCCCCNCC(O)c1ccc(Cl)c(Cl)c1)c1ccc(Cl)c(Cl)c1 (stereo not drawn) [TCMDC-141987] | 1.28 | – | – | – | – | – | 3.57 | – | – | – | – | – | 6.33 µM | 1770 nM | – | – | – | Average inhibition female (%) [1, 13]: 52.4%; % inhibition female (individual replicates) R1 ([1]; PfDGFA at 2µM, replicate R1): 44.0%; % inhibition female (individual replicates) R3 ([1]; PfDGFA at 2µM, replicate R3): 21.3%; % inhibition female (individual replicates) R4 ([1]; PfDGFA at 2µM, replicate R4): 69.1%; HitlevelF ([1]; 2µM): 2; Average inhibition male (%) [2, 13]: 88.7%; % inhibition male (individual replicates) R1 ([2]; PfDGFA at 2µM, replicate R1): 92.2%; % inhibition male (individual replicates) R3 ([2]; PfDGFA at 2µM, replicate R3): 63.5%; % inhibition male (individual replicates) R4 ([2]; PfDGFA at 2µM, replicate R4): 102.2%; HitlevelM ([2]; 2µM): 4 |
| 110 nM | 150 nM | – | O=c1c(Br)ccccc1Br [TCMDC-142246] | 63.16 | 96.5% | 93.6% | 94.7% | 103% | 94.9% | 47.29 | 98.7% | 98.2% | 102% | 94.6% | 99.6% | 6.95 µM | – | – | – | – | – |
| 400 nM | 160 nM | – | Nc1cc(C=Cc2ccc([N+](=O)[O-])o2)nc2ccccc12 [TCMDC-142295] | 6.49 | 93.7% | 96.4% | 95.7% | 93.8% | 88.9% | 16.74 | 98.9% | 98.2% | 98.8% | 98.4% | 100% | 2.6 µM | – | – | – | – | – |

| Structure (SMILES) | IC50 ([1]; Plasmodium falciparum) | IC50 ([2]; Plasmodium falciparum) | IC50 [1] | Selectivity ratio F [1] | inhibition at 2 µM [1, 3] | inhibition at 2 µM [1, 4] | inhibition at 2 µM [1, 5] | inhibition at 2 µM [1, 6] | inhibition at 2 µM [1, 7] | Selectivity Ratio M [2] | inhibition at 2 µM [2, 8] | inhibition at 2 µM [2, 9] | inhibition at 2 µM [2, 10] | inhibition at 2 µM [2, 11] | inhibition at 2 µM [2, 12] | Tox50 (HepG2 cells) | IC50 [2] | Average inhibition female (%) ([1]; 2µM, average of replicates) | % inhibition female (individual replicates) R1 ([1]; 2µM, replicate R1) | % inhibition female (individual replicates) R3 ([1]; 2µM, replicate R3) | further results |
| --- | --- | --- | --- | --- | --- | --- | --- | --- | --- | --- | --- | --- | --- | --- | --- | --- | --- | --- | --- | --- | --- |
| CNC(=O)c1cnc(Nc2ccc(N3CCN(C)CC3)cc2)nc1Nc1ccccc1OC.O=C(O)C(F)(F)F [TCMDC-141382] | > 10000 nM | 1200 nM | – | 3.56 | – | – | – | – | – | 29.58 | – | – | – | – | – | 35.63 µM | – | – | – | – | inhibition at 2 µM ([1]; Plasmodium falciparum, PfDGFA at 2µM, average of replicates, read-out: Average inhibition female (%)): 0.5%; inhibition at 2 µM ([1]; Plasmodium falciparum, PfDGFA at 2µM, replicate R1, read-out: % inhibition female (individual replicates) R1): -10.9%; inhibition at 2 µM ([1]; Plasmodium falciparum, PfDGFA at 2µM, replicate R2, read-out: % inhibition female (individual replicates) R2): 1.1%; inhibition at 2 µM ([1]; Plasmodium falciparum, PfDGFA at 2µM, replicate R3, read-out: % inhibition female (individual replicates) R3): 15.6%; inhibition at 2 µM ([1]; Plasmodium falciparum, PfDGFA at 2µM, replicate R4, read-out: % inhibition female (individual replicates) R4): -3.9%; HitlevelF ([1]; 2µM): 0; inhibition at 2 µM ([2]; Plasmodium falciparum, PfDGFA at 2µM, average of replicates, read-out: Average inhibition male (%)): 82.8%; inhibition at 2 µM ([2]; Plasmodium falciparum, PfDGFA at 2µM, replicate R1, read-out: % inhibition male (individual replicates) R1): 83.2%; inhibition at 2 µM ([2]; Plasmodium falciparum, PfDGFA at 2µM, replicate R2, read-out: % inhibition male (individual replicates) R2): 85.9%; inhibition at 2 µM ([2]; Plasmodium falciparum, PfDGFA at 2µM, replicate R3, read-out: % inhibition male (individual replicates) R3): 82.1%; inhibition at 2 µM ([2]; Plasmodium falciparum, PfDGFA at 2µM, replicate R4, read-out: % inhibition male (individual replicates) R4): 80.2%; HitlevelM ([2]; 2µM): 4 |
| Cc1ccc(Cn2nc(Cl)c(N3CCNCC3)cc2=O)cc1NC(=O)Nc1ccc(-c2ccccc2)cc1.O=C(O)C(F)(F)F [TCMDC-141698] | – | – | 1120 nM | 3.54 | – | – | – | – | – | 3.32 | – | – | – | – | – | 3.97 µM | 1200 nM | 53.1% | 36.8% | 40.3% | % inhibition female (individual replicates) R4 ([1]; 2µM, replicate R4): 66.3%; Average inhibition male (%) ([2]; 2µM, average of replicates): 96.8%; % inhibition male (individual replicates) R1 ([2]; 2µM, replicate R1): 94.1%; % inhibition male (individual replicates) R3 ([2]; 2µM, replicate R3): 94.5%; % inhibition male (individual replicates) R4 ([2]; 2µM, replicate R4): 100.9% |
| Cc1c(Cn2nc(Cl)c(N3CCNCC3)cc2=O)cccc1NC(=O)Nc1ccc(-c2ccccc2)cc1.O=C(O)C(F)(F)F [TCMDC-141699] | – | – | 560 nM | 2.15 | – | – | – | – | – | 2.05 | – | – | – | – | – | 1.2 µM | 580 nM | 53.7% | 31.7% | 37.6% | % inhibition female (individual replicates) R4 ([1]; 2µM, replicate R4): 62.1%; Average inhibition male (%) ([2]; 2µM, average of replicates): 91.5%; % inhibition male (individual replicates) R1 ([2]; 2µM, replicate R1): 87.4%; % inhibition male (individual replicates) R3 ([2]; 2µM, replicate R3): 92.1%; % inhibition male (individual replicates) R4 ([2]; 2µM, replicate R4): 92.9% |
| Cc1ccc(C)c(S(=O)(=O)NCC2CCN(Cc3ccc(O)cc3)CC2)c1.O=C(O)C(F)(F)F [TCMDC-141802] | > 10000 nM | 1490 nM | – | 8.16 | 41.1% | 46.9% | 46.3% | 38% | 33.3% | 54.73 | 95.1% | 95.4% | 96.3% | – | 93.6% | 81.55 µM | – | – | – | – | – |
